Measured values: patent publication US10945989B2, “Perinatal treatment with a flavonoid agonist of the TrkB receptor for BDNF rescues neurogenesis and behavior in the Ts65Dn mouse model of DS” (ALMA MATER STUDIORUM—Universita' di Bologna, priority 2017, dated 2021)

Experiments:
cultures of NPCs = assay: Apoptotic cells in NPC cultures; assay type: cell-based, mouse; details: data not shown
[1] = test system: granule cells of the dentate gyrus; assay: Stereology of the DG: total number of granule cells; assay type: in vivo, mouse; details: 5.0 mg/kg P3-P15
Protocol: Euploid and Ts65Dn mice received a daily subcutaneous injection (at 9-10 am) of 7,8-DHF (5.0 mg/kg in vehicle: PBS with 1% DMSO) or vehicle from postnatal day 3 (P3) to postnatal day 15. This timing was chosen because it corresponds to that previously used to test the effects of fluoxetine and other pharmacotherapies in the neonate Ts65Dn mouse (Bianchi et al., 2010b; Giacomini et al., 2015; Stagni et al., 2016). Mice that received 7,8-DHF will be called “treated mice” (treated euploid mice: n=25; treated Ts65Dn mice: n=15). Mice that received the vehicle will be called “untreated mice” (untreated euploid mice: n=35; untreated Ts65Dn mice: n=21). […]
Unbiased stereology was performed on Hoechst-stained sections from P15 mice. […] Granule cell nuclei were counted with a ×64 oil objective (1.4 NA). Granule cell nuclei intersecting the uppermost focal plane and intersecting the exclusion lines of the count frame were not counted. […]
where Q is the number of particles counted in the disectors, dis is the number of disectors and Vdis is the volume of the disector. For calculation of Vdis the disector height was corrected for section shrinkage in the z-plane (Dorph Petersen et al., 2001) according to the formula: h=counting thickness×(original thickness/measured thickness). The section thickness was measured during neuron counting at different random locations. […]

[2] = test system: TrkB receptor (TrkB-FL, p-TrkB-FL, TrkB-T1); assay: Western blot of hippocampal homogenates: TrkB receptors; assay type: in vivo, mouse
Protocol: (§1) Euploid and Ts65Dn mice received a daily subcutaneous injection (at 9-10 am) of 7,8-DHF (5.0 mg/kg in vehicle: PBS with 1% DMSO) or vehicle from postnatal day 3 (P3) to postnatal day 15. This timing was chosen because it corresponds to that previously used to test the effects of fluoxetine and other pharmacotherapies in the neonate Ts65Dn mouse (Bianchi et al., 2010b; Giacomini et al., 2015; Stagni et al., 2016). Mice that received 7,8-DHF will be called “treated mice” (treated euploid mice: n=25; treated Ts65Dn mice: n=15). Mice that received the vehicle will be called “untreated mice” (untreated euploid mice: n=35; untreated Ts65Dn mice: n=21). […] The brains were excised and cut along the midline. The left hemisphere of a group of mice was fixed by immersion in PFA 4% and frozen, and the left hemisphere of another group of mice was used for Golgi staining. The right hemispheres of all mice was kept at −80° C. and used for western blotting.
(§2) In homogenates of the hippocampal formation of P15 mice, total proteins were obtained as previously described (Trazzi et al., 2011) and the levels of the following proteins were evaluated: BDNF, TrkB full length (TrkB-FL), phosphorylated TrkB (p-TrkB), the truncated form 1 of the TrkB receptor (TrkB-T1), phosphorylated ERK1 (p-ERK1), phosphorylated ERK2 (p-ERK2), ERK1, ERK2, synaptophysin (SYN), GAPDH and α-Tubulin using the antibodies reported in Table 1. Densitometric analysis of digitized images with ChemiDoc XRS+ was performed with Image Lab software (Bio-Rad Laboratories, Hercules, Calif., USA) and intensity for each band was normalized to the intensity of the corresponding GAPDH or α-Tubulin band.

ERK1/ERK2 = assay: Western blot of hippocampal homogenates: ERK1/2 and p-ERK1/2; assay type: in vivo, mouse; details: for ERK2/ERK1 ratio, mean / p-ERK2/p-ERK1 ratio, mean: hippocampal region
Protocol: as §1, §2

[3] = test system: proliferating cells in the SGZ; assay: Prenatal treatment: BrdU-positive cells in the SGZ of P2 mice; assay type: in vivo, mouse
Protocol: Conception was determined by examining the vaginal plug. […] After sacrifice, brain was excised and weighed.
One of 20 sections (n=8-10) from the beginning to the end of the hippocampal formation were subjected to double-fluorescence immunohistochemistry for BrdU and NeuN. Sections were incubated overnight at 4° C. with a primary antibody, rat monoclonal anti-BrdU antibody (AbD Serotec), diluted 1:100 in 0.1% Triton X-100 in PBS and either mouse monoclonal anti-NeuN (Millipore Bioscience Research Reagents) diluted 1:400 in 0.1% Triton X-100 in PBS. Sections were then washed in 0.1% Triton X-100 in PBS for 40 min and incubated for 2 h with a Cy3-conjugated anti-rat IgG (1:200; Jackson Immunoresearch) secondary fluorescent antibody for BrdU immunohistochemistry and FITC-conjugated anti-mouse IgG (1:200; Jackson Immunoresearch) for NeuN immunohistochemistry.
BrdU-positive cells were sampled in the caudal subventricular zone (SVZ) of the lateral ventricle overlying the dentate gyrus and from the subgranular zone (SGZ) of the dentate gyrus (FIG. 10A). The caudal SVZ is the region that stretches from the beginning to the end of the hippocampal formation (BC: 3.27-4.84 mm). Since different regions of the ventricular zone (VZ) and SVZ give origin to neurons destined to different telecephalic areas (Brazel et al., 2003), we evaluated the effects of treatment both in the dorsal and lateral part of the SVZ (FIG. 10B). For cell counting, an area was traced enclosing the whole SVZ and all cells in this area were counted. While at later life stages, neural progenitor cells are only present in the SGZ of the dentate gyrus, in P2 pups proliferating cells can be detected in the perspective molecular layer and hilus. Therefore, cells were counted within a manually-traced area enclosing the whole dentate gyrus (FIG. 10B). […] Quantification of BrdU-labeled nuclei was conducted in every 20th section. The total number of BrdU labeled cells in the SVZ and SGZ was estimated by multiplying the number counted in the sampled sections by the inverse of the section sampling fraction (ssf= 1/20).

[4] = Liu et al., 2010 and 2013; cited from earlier work
[5] = P15 Ts65Dn mice, vs untreated counterparts and untreated euploid mice

## O=c1cc(-c2ccccc2)oc2c(O)c(O)ccc12 [7,8-DHF, 7,8-dihydroxyflavone]
Cultures of NPCs
  number of apoptotic cells: no effect of treatment
[1]; P15 Ts65Dn mice
  total number of granule cells: became similar to that of untreated euploid mice
[1]; P15 euploid mice
  total number of granule cells: no effect on total number of granule cells
[2]; P15, both genotypes (euploid and Ts65Dn)
  levels of p-TrkB-FL: increase in the levels of p-TrkB-FL
[2]; P15 Ts65Dn mice
  levels of TrkB-FL: reduction in the levels of TrkB-FL
[2]; [5]
  levels of TrkB-T1: reduction in the levels of TrkB-T1
ERK1/ERK2; P15 Ts65Dn mice, vs untreated Ts65Dn and untreated euploid mice
  p-ERK1 levels: increase in p-ERK1 levels
ERK1/ERK2; P15 Ts65Dn mice, vs untreated Ts65Dn mice
  ERK1 levels: increase in ERK1 levels
ERK1/ERK2; [5]
  ERK2 levels: increase in ERK2 levels
ERK1/ERK2; P15 Ts65Dn mice, vs untreated euploid mice
  p-ERK2 levels: increase in p-ERK2 levels
ERK1/ERK2; P15 euploid mice, vs untreated counterparts
  ERK2 levels: increase in ERK2 levels
ERK1/ERK2; Ts65Dn mice
  stoichiometry of ERK1/2 and p-ERK1/2: did not affect their stoichiometry
ERK1/ERK2; Ts65Dn mice, 7,8-DHF P3-P15
  ERK2/ERK1 ratio, mean: 3.93
  p-ERK2/p-ERK1 ratio, mean: 2.01
ERK1/ERK2; euploid mice, 7,8-DHF P3-P15
  ERK2/ERK1 ratio, mean: 4.18
  p-ERK2/p-ERK1 ratio, mean: 2.32
[3]; P2, treated E10-E20/21
  total number of BrdU-positive cells in the SGZ, treated Ts65Dn vs untreated euploid mice: no differences in total number of BrdU-positive cells
[3]; P2 Ts65Dn mice, dams 5 mg/kg s.c. E10-E20/21, untreated Ts65Dn approx. 12850, euploid approx. 17500
  total number of BrdU-positive cells in the SGZ: approximately 16800
[3]; P2 Ts65Dn mice, treated E10-E20/21
  increase in cell number in the SGZ vs untreated Ts65Dn: +30%
[4]
  blood-brain barrier penetration: penetrates the blood-brain barrier
